Measurements taken from patent US9580432B2, “Fused pyrimidine compound or salt thereof” (TAIHO PHARMACEUTICAL CO., LTD., priority 2013, dated 2017).

Tests used:
[1] = molecular target: purified recombinant human BTK protein (Homo sapiens (Human), UniProt Q06187); test: Measurement of BTK inhibitory activity (in vitro); assay type: biochemical; conditions: FL-PEPTIDE 2 substrate 1 μM, ATP 45 μM, 40 minutes at 25° C.
Outline: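 Recombinant human BTK with FL-PEPTIDE 2 substrate (1 μM), 45 μM ATP and 10 mM MgCl2 in 20 mM HEPES pH 7.5, 2 mM DTT, 0.01% Triton X-100, 5% DMSO; 40 min at 25° C. Reaction stopped with 30 mM EDTA. Phosphorylated and unphosphorylated peptide separated and detected by microchannel capillary electrophoresis.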

[2] = tested on: purified recombinant human EGFR protein / BTK; test: BTK inhibition selectivity compared with EGFR kinase inhibitory activity (in vitro); assay type: biochemical; conditions: EGFR assay ATP 1.5 μM
A431 cells / TMD8 cells = test: Proliferation inhibitory activity against cell lines expressing BTK and EGFR (in vitro), comparison of selectivity; assay type: cell-based, human; conditions: ratio from GI50 (nM), 3 days culture, CELLTITER GLO
Outline: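 BTK-expressing TMD8 DLBCL cells (RPMI1640/10% FBS) and EGFR-overexpressing A431 epidermoid carcinoma cells (DMEM/10% FBS) cultured 1 day, then exposed to compound (0.2% DMSO final) for 3 days at 37° C. Luminescence read-out; inhibition ratio % = (C−T)/(C−C0)×100, with A431/TMD8 ratio as selectivity index.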

[3] = tested on: Human B cell lymphoma-derived cell line TMD8; test: Antitumor effect, TMD8 subcutaneously transplanted into SCID mice; assay type: in vivo; conditions: Day 17; 50 mg/kg orally once a day
Text: (§1) Human B cell lymphoma-derived cell line TMD8 was subcutaneously transplanted into SCID mice. At the time point when the volume of engrafted tumors reached 100 to 200 mm^3, the mice were divided into groups, with 5 animals in each group, by a random classification method (Day 1) such that the tumor volumes in the various groups would be uniform, and oral administration was initiated. […] In order to compare the antitumor effect caused by the drug administration, the relative tumor volume (RTV), which was the proliferation ratio of tumor when the tumor volume at the time of grouping was set as one, was determined by the following formula. RTV=(Tumor volume on the day of tumor volume measurement)/(tumor volume at the time of grouping)

[4] = Body weight change ratio in TMD8-transplanted SCID mice; assay type: in vivo; conditions: Day 17; 50 mg/kg orally once a day
Text: as §1
The body weight change (BWC) was used as an index indicating the systemic toxicity caused by drug administration. BWC (%)=([(mice body weight on the day of weight measurement)−(mice body weight at the time of grouping)]/(mice body weight at the time of grouping))×100 (Mathematical Formula 1)

[5] = Influence on body weight of SD rat by repeated administration (in vivo); conditions: 750 mg/kg orally once a day, two weeks; relative to vehicle-administered group
Description: The rats were grouped as follows, with four animals in each group, by a random classification method such that the average body weights of the each groups would be almost uniform (Day 1).
The body weight change (BWC) was used as an index indicating the systemic toxicity caused by drug administration. The BWC was calculated by the following formula. BWC (%)=([(Rat body weight on 14 days after the administration)−(rat body weight at the time of grouping)]/(rat body weight at the time of grouping))×100
The relative body weight change ratios in the each compound-administered groups were calculated by the following formula when the BWC in the vehicle-administered group was set as 1, and the results are indicated in Table 52. Relative body weight change ratio (%)=(BWC in the compound-administered group)/(BWC in the vehicle-administered group)×100

Chain of purified recombinant human BTK protein (Q06187 whole entry): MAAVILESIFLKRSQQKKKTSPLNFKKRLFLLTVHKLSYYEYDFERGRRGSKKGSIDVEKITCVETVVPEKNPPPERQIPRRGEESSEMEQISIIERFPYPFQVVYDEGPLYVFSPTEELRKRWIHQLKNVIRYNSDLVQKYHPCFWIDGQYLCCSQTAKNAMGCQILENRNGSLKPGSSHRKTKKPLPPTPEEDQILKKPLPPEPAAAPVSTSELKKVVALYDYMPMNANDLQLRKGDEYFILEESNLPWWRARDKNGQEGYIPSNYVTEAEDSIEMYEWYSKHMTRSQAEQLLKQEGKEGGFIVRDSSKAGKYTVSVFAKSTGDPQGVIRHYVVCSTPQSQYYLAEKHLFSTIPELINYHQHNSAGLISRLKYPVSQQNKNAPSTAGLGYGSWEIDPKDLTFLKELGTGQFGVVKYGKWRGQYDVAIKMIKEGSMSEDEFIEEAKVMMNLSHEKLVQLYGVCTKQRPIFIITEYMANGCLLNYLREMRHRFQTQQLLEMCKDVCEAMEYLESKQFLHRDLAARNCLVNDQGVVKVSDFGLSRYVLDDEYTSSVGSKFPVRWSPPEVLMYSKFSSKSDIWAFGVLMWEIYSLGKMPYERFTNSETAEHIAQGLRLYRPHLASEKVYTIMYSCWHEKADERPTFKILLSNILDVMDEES

SMILES: C=CC(=O)N1CCC[C@@H](n2nc(C(=O)Nc3nc4cc(F)ccc4o3)c3c(N)ncnc32)C1 [Example 12, (R)-1-(1-acryloylpiperidin-3-yl)-4-amino-N-(5-fluorobenzo[d]oxazol-2-yl)-1H-pyrazolo[3,4-d]pyrimidine-3-carboxamide]
- IC50 [1]: 433 pM
- EGFR inhibitory activity IC50 value (nM)/BTK inhibitory activity IC50 value (nM) [2]: 84.2
- A431 cell proliferation inhibition ratio/TMD8 cell proliferation inhibitio ratio (A431 cells / TMD8 cells): 3077.4
- RTV (relative tumor volume) [3]: 0.13
- BWC (body weight change) [4]: 6.0%
- Relative body weight ratio (%) [5]: 91.2%

SMILES: C=CC(=O)N1CCC[C@@H](n2nc(C(=O)Nc3nc4ccccc4o3)c3c(N)ncnc32)C1 [Example 13, (R)-1-(1-acryloylpiperidin-3-yl)-4-amino-N-(benzo[d]oxazol-2-yl)-1H-pyrazolo[3,4-d]pyrimidine-3-carboxamide]
- IC50 [1]: 813 pM
- EGFR inhibitory activity IC50 value (nM)/BTK inhibitory activity IC50 value (nM) [2]: 28.8
- A431 cell proliferation inhibition ratio/TMD8 cell proliferation inhibitio ratio (A431 cells / TMD8 cells): 4872.2
- RTV (relative tumor volume) [3]: 4.24
- BWC (body weight change) [4]: 3.8%
- Relative body weight ratio (%) [5]: 79.1%
